Read-outs that look alike come from different tables or passages of the source. Each block holds one compound with its values, some of them ahead of it.
How the values were obtained:
[1] = target: T1, human IDO1 (Homo sapiens, UniProt P14902); test: human IDO1 biochemical assay (NFK GreenScreen)
T1 construct: Full-length recombinant human and mouse IDO1 were expressed in Escherichia coli with a hexahistidine tag at the N-terminus; hexahistidine (N); made in house; host or cells: Escherichia coli

[2] = target: T2, A375 + IFNγ (hIDO1) (Homo sapiens, UniProt P14902); test: cell-based assay, Trp-catabolizing activity in IFNγ-stimulated A375 cells; details: IFNγ-stimulated A375 human melanoma cells
T2 construct: host or cells: A375 cells stimulated with IFNγ

[3] = target: T3, human TDO (Homo sapiens, UniProt P48775); test: human TDO biochemical assay (NFK GreenScreen)
T3 construct: hexahistidine (C); made in house; host or cells: Escherichia coli
Protocol: (§1) Full-length recombinant human and mouse IDO1 were expressed in Escherichia coli with a hexahistidine tag at the N-terminus, and purified by affinity chromatography to > 95% purity, as described ([8]). Human and mouse TDO containing a C-terminal hexahistidine tag were analogously expressed and purified to > 95% purity ([8]). The inhibitory activity of compounds was determined with the NFK GreenScreen assay technology under the conditions as described ([8]), except for the reaction buffer for IDO1, which was replaced by 50 mM NaH2PO4, pH 7.0, supplemented with 0.01% Tween-20 and 1% glycerol. Inhibition of the CYP3A4 and CYP2D6 enzymes was determined with the P450-Glo™ Screening System with Luciferin-IPA (Promega, #V9920 and V9890). For determination of IC50 values, the effect of inhibitors was determined in 10-point duplicate dose-response curves. Graphs were fitted to a four-parameter logistics equation in XLfit (ID Business Solutions, Ltd., Guildford, UK) from which IC50 values were calculated.

[4] = system: TDO; details: cited from earlier work
[5] = system: IDO1; details: cited from earlier work
[6] = system: IDO1; parameters: method as in doi:10.1200/JCO.2019.37.7_suppl.358; details: once-daily oral dosing; cited from earlier work
[7] = system: IDO1; details: cited from earlier work; remark: listed apart in the source
[8] = system: B16F10-mIDO1 subline j19 in female B6D2F1 mice; test: B16F10-mIDO1 syngeneic mouse model, intervention study; format: in vivo; details: 100 mg/kg p.o. b.i.d. from day 3
Text: For development of the mIDO1-overexpressing B16F10 mouse model, performed at Charles River Laboratories, female B6D2F1 mice were implanted subcutaneously with 1 × 10^6 parental B16F10 cells or B16F10-mIDO1 cells (subline i6 or j19) on day 0 with n = 10 mice per group. A tumor volume of 2000 mm^3 was used as the endpoint of the experiment for the individual animals. To determine the optimal inoculation cell concentration, mice were implanted with 3 × 10^5, 1 × 10^5 or 3 × 10^4 parental or mIDO1-overexpressing B16F10 cells (subline j19) with n = 5 mice per group. The same endpoint of the experiment was used as described above. […] For the intervention study, 3 x 10^5 cells of the B16F10-mIDO1 subline j19 were implanted on day 0, and treatment was started on day 3 with vehicle (DMSO, Kolliphor, 5% mannitol; […]. Four animals were excluded from analysis due to non-treatment-related deaths. Tumors and plasma were sampled 2 h post last dose.
[…]. After centrifugation, proteins were removed from the homogenized tissue supernatants and plasma samples by precipitation with methanol. The concentrations of inhibitor, Trp and Kyn were determined by LC-MS/MS.

[9] = system: melanoma patients; details: combination with pembrolizumab; cited from earlier work
[10] = target: GL-261-mTDO (Mus musculus, UniProt P48776); test: cell-based assay, Trp-catabolizing activity in GL-261-mTDO cells; details: read-out: inhibition GL-261-mTDO
[11] = target: T4, SW48 (hTDO) (Homo sapiens, UniProt P48775); test: cell-based assay, Trp-catabolizing activity in SW48 cells; details: Trp-catabolizing activity
T4 construct: host or cells: SW48 cells

[12] = system: IDO1; details: cited from earlier work; remark: listed apart in the source
[13] = system: CT26 cells implanted subcutaneously into female BALB/c mice; test: CT26 mouse model, second study (Charles River); format: in vivo
Protocol: For the second study, performed at Charles River Laboratories, 3 × 10^5 CT26 cells were implanted subcutaneously into female BALB/c mice on day 0. […] Tumor growth was monitored using caliper measurement 3 times weekly. A tumor volume of 2000 mm^3 was used as the endpoint of the experiment for the individual animals. Tumors were sampled 2 h post last dose.
(§2) Tissues were homogenized in PBS at a ratio of 1 mg per 10 μl using micro pellet pestles mounted on a Micro-Tube Homogenizer System (Thomas Scientific). After centrifugation, proteins were removed from the homogenized tissue supernatants and plasma samples by precipitation with methanol. The concentrations of inhibitor, Trp and Kyn were determined by LC-MS/MS.

[14] = system: CT26 cells implanted subcutaneously into female BALB/c mice; test: CT26 mouse model, first study (ProQinase); format: in vivo; details: 50 mg/kg NTRC 3748-0 b.i.d., 100 mg/kg epacadostat q.d.; for Kyn levels in the tumor: LC-MS/MS, 2 h post last dose; for tumor growth: p.o. from day 8
Protocol: For the first CT26 mouse model study, performed at ProQinase, 5 × 10^5 CT26 cells were implanted subcutaneously into female BALB/c mice on day 0. […] Tumor growth was monitored using caliper measurement 2 times weekly. The study was terminated at day 22 based on the tumor burden. Tumors and plasma were sampled 2 h post last dose.
as §2

[15] = system: IFNγ-stimulated adherent cell samples isolated from ascites of ovarian cancer patients; test: Trp-catabolizing activity in IFNγ-stimulated ascites cell samples; format: cell-based; details: Homo sapiens
Protocol: (§3) Ascites was collected from patients with a primary diagnosis of advanced epithelial ovarian cancer during paracentesis for diagnostics or symptom relieve, or during primary debulking surgery. Ascites was filtered and cells were collected by centrifugation as described ([23]). To enrich for tumor cells, ascites cell samples were allowed to adhere overnight to tissue culture plastic. The cell samples were then cultured for 2–3 weeks in advanced RPMI medium (ThermoFisher), supplemented with 10% FBS, 1% glutamax and 1% P/S, with 2 or 3 times passaging of the cells. qPCR analyses of the MUC16, HE4, IDO1, and TDO2 genes were performed for all samples as described above. Five samples which could be cultured over multiple passages were analyzed for cell surface expression of mucin-16 and EpCAM by flow cytometry using FITC-conjugated anti-mucin-16 (AssayPro, #32189-05141) and APC-conjugated anti-EpCAM (Miltenyi, #130-111-117, RRID: AB_2657496) to assure that the cell cultures consisted of malignant cells. IDO1 mRNA and protein levels in these samples were analyzed as described above after incubation with or without 200 ng/ml IFNγ for 24 h. The collection of ascites and the research described was conducted with approval of the medical ethical committee of the Radboud university medical center and informed written consent from each subject.

[16] = system: cell lines used in this study; test: cell viability assays (ATPlite 1Step); details: in parallel with the cell-based assays
[17] = target: T5, mTDO (Mus musculus, UniProt P48776); test: mouse TDO biochemical assay (NFK GreenScreen)
T5 construct: hexahistidine (C); made in house; host or cells: Escherichia coli
Protocol: as §1

[18] = system: unstimulated adherent cell samples isolated from ascites of ovarian cancer patients; test: Trp-catabolizing activity in unstimulated ascites cell samples; format: cell-based, human; details: for IC50: Homo sapiens
Protocol: as §3

[19] = target: HEK-hTDO (Homo sapiens, UniProt P48775); test: cell-based assay, Trp-catabolizing activity in HEK-hTDO cells
[20] = system: CD8-positive T cells co-cultured with HEK-hIDO1 cells; test: co-culture assay of HEK-hIDO1 cells with PBMCs, CFSE proliferation; format: cell-based, human; details: 7.5 µM Trp; 10 µM NTRC 3883-0, 1 µM epacadostat; 5 days

T1 sequence (P14902 whole entry): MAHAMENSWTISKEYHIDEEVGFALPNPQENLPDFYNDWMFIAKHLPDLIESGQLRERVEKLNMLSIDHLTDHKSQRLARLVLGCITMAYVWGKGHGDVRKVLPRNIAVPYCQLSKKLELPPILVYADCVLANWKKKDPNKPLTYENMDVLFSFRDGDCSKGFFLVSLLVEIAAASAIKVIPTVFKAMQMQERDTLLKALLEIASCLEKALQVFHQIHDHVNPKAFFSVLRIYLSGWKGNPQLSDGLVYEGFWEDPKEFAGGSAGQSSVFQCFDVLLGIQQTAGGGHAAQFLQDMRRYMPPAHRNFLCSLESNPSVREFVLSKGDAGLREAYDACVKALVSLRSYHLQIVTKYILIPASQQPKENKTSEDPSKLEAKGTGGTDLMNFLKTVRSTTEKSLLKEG
T2 sequence (P14902 whole entry): as above
T3 sequence (P48775 whole entry): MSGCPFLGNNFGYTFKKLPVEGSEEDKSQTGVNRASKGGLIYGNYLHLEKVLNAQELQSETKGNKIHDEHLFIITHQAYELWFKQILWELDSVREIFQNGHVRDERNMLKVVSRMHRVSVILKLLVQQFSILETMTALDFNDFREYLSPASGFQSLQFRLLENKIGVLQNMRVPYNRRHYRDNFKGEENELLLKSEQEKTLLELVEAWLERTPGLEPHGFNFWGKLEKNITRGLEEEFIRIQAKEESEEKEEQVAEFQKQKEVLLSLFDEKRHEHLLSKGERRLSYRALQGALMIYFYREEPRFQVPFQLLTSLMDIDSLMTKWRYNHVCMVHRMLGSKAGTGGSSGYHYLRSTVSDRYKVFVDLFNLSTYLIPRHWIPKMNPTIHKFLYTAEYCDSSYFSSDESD
HEK-hTDO, sequence (P48775 whole entry): as above
T5 sequence (P48776 whole entry): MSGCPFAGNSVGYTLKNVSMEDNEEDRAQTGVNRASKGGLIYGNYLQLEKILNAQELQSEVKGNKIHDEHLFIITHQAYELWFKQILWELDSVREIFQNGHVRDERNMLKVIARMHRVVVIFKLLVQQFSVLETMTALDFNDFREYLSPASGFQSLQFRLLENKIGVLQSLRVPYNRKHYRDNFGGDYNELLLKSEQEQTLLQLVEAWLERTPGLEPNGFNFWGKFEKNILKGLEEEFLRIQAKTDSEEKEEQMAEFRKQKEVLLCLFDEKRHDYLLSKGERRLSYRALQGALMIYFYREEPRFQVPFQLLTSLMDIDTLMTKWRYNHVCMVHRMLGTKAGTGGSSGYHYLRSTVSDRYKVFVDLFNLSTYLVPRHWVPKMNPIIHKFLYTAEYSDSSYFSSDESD
GL-261-mTDO, sequence (P48776 whole entry): as above
T4 sequence (P48775 whole entry): as the sequence (P48775 whole entry) above

IC50 ([1]; human IDO1 biochemical assay): > 31600 nM
IC50 [2]: > 31600 nM
Compound: O=C1CN(C(=O)c2ccccc2)C(C2CCCCC2)N1O (centres unmarked) [Compound 2e]

IC50 ([1]; human IDO1 biochemical assay): > 31600 nM
IC50 [2]: > 31600 nM
Compound: O=C1CN(C(=O)c2ccccc2)C(c2ccccc2Br)N1O (centres unmarked) [Compound 2c]

IC50 ([1]; human IDO1 biochemical assay): > 31600 nM
IC50 [2]: > 31600 nM
Compound: O=C1CN(C(=O)c2ccccc2)C(c2ccc(Br)cc2)N1O (centres unmarked) [Compound 2d]

IC50 ([1]; human IDO1 biochemical assay): 582 nM
IC50 [2]: 2140 nM
Compound: O=C1CN(C(=O)c2ccc(F)cc2F)C(c2cccc(Br)c2)N1O (centres unmarked) [Compound 3i]

IC50 ([1]; human IDO1 biochemical assay): 4020 nM
IC50 [2]: 21700 nM
Compound: Cc1ccccc1C(=O)N1CC(=O)N(O)C1c1cccc(Br)c1 (centres unmarked) [Compound 3d]

IC50 ([1]; biochemical): 1200 nM
IC50 ([1]; human IDO1 biochemical assay): 1220 nM
activity on human TDO (in words) ([3]; biochemical, highest tested concentration 31.6 µM): inactive
IC50 [2]: 4520 nM
Compound: O=C1CN(C(=O)c2ccccc2)C(c2cccc(Br)c2)N1O (centres unmarked) [Compound 1]

IC50 ([1]; human IDO1 biochemical assay): 2380 nM
IC50 [2]: 5220 nM
Compound: O=C1CN(C(=O)c2ccccc2)C(c2cccc(Cl)c2)N1O (centres unmarked) [Compound 2b]

Compound: N[C@@H](Cc1c[nH]c2ccccc12)C(=O)O [Trp, L-tryptophan]
K M,Trp of TDO [4]: 190 µM
K M,Trp of IDO1 [5]: 6 µM

Compound: C[C@@H](C(=O)Nc1ccc(Cl)cc1)[C@H]1CC[C@@H](c2ccnc3ccc(F)cc32)CC1 [Linrodostat, linrodostat]
safety and target coverage [6]: safety and good target coverage

IC50 ([1]; human IDO1 biochemical assay): 784 nM
IC50 [2]: 4600 nM
Compound: O=C1CN(C(=O)c2ccccc2Cl)C(c2cccc(Br)c2)N1O (centres unmarked) [Compound 3f]

Compound: NS(=O)(=O)NCCNc1nonc1C(=NO)Nc1ccc(F)c(Br)c1 [epacadostat, reference compound]
tolerability in human patients [7]: well tolerated
IC50 [3]: 54 nM
tumor growth corrected for the variation in time until tumor establishment [8]: delay in tumor growth
tumor growth in comparison to vehicle-treated animals [8]: no effect
objective response [9]: 12 out of 22
inhibition at 31.6 µM [10]: 28%
IC50 [11]: 6460 nM
clinical benefit of the combination over pembrolizumab plus placebo [12]: no clinical benefit
tumor growth ([13]; 100 mg/kg p.o. b.i.d. from day 8): no inhibition of tumor growth
Kyn levels in the tumor ([13]; LC-MS/MS, 2 h post last dose, 100 mg/kg p.o. b.i.d.): considerable reduction of Kyn levels
Kyn levels in the tumor [14]: considerable reduction of Kyn levels
tumor growth [14]: inhibition of tumor growth
IC50 ([15]; IFNγ-stimulated samples, read-out: IC50): 8.3 nM
IC50 ([15]; IFNγ-stimulated, read-out: IC50 ASC 009): 3.7 nM
IC50 ([15]; IFNγ-stimulated, read-out: IC50 ASC 010): 9.3 nM
IC50 ([15]; IFNγ-stimulated, read-out: IC50 ASC 013): 9 nM
IC50 ([15]; IFNγ-stimulated, read-out: IC50 ASC 031): 7.2 nM
IC50 ([15]; IFNγ-stimulated, read-out: IC50 ASC 041): 7.4 nM
cytotoxicity [16]: not cytotoxic
IC50 [17]: 225 nM
inhibition of basal Trp-catabolizing activity (in words) [18]: no or only minimal inhibition
IC50 ([18]; mean of samples, read-out: IC50 Mean): 7730 nM
IC50 ([18]; read-out: IC50 ASC 010): 9640 nM
IC50 ([18]; read-out: IC50 ASC 013): 9940 nM
IC50 ([18]; read-out: IC50 ASC 031): 8630 nM
IC50 ([18]; read-out: IC50 ASC 041): 4310 nM
IC50 [19]: 24100 nM
times lower activity on TDO in the HEK-hTDO assay than in the biochemical assay ([19]; cell-based versus biochemical TDO IC50): more than 400 times
effect on IDO1-mediated inhibition of T cell proliferation (in words) [20]: relieved the inhibitory effect

IC50 ([1]; human IDO1 biochemical assay): 2460 nM
IC50 [2]: 5290 nM
Compound: O=C1CN(C(=O)c2ccccc2)C(c2cccc(C(F)(F)F)c2)N1O (centres unmarked) [Compound 2g]

IC50 ([1]; human IDO1 biochemical assay): 17900 nM
IC50 [2]: > 31600 nM
Compound: N#Cc1cccc(C2N(O)C(=O)CN2C(=O)c2ccccc2)c1 (centres unmarked) [Compound 2f]

IC50 ([1]; human IDO1 biochemical assay): 2170 nM
IC50 [2]: 11000 nM
Compound: O=C1CN(C(=O)c2ccc(F)cc2)C(c2cccc(Br)c2)N1O (centres unmarked) [Compound 3a]

IC50 ([1]; human IDO1 biochemical assay): > 31600 nM
IC50 [2]: > 31600 nM
Compound: COc1ccccc1C(=O)N1CC(=O)N(O)C1c1cccc(Br)c1 (centres unmarked) [Compound 3e]

IC50 ([1]; human IDO1 biochemical assay): 2170 nM
IC50 [2]: 4590 nM
Compound: O=C1CN(C(=O)c2c(F)cccc2F)[C@@H](c2cccc(Br)c2)N1O [Compound 3k]

IC50 ([1]; human IDO1 biochemical assay): 910 nM
IC50 [2]: 5240 nM
Compound: O=C1CN(C(=O)c2cccc(F)c2)C(c2cccc(Br)c2)N1O (centres unmarked) [Compound 3b]

IC50 ([1]; human IDO1 biochemical assay): 1780 nM
IC50 [2]: 12500 nM
Compound: O=C1CN(C(=O)c2ccccc2Br)C(c2cccc(Br)c2)N1O (centres unmarked) [Compound 3g]

IC50 ([1]; human IDO1 biochemical assay): 198 nM
IC50 [2]: 589 nM
Compound: O=C1CN(C(=O)c2c(F)cccc2F)C(c2cccc(Br)c2)N1O (centres unmarked) [Compound 3j]
Kyn levels in the tumor [14]: considerable reduction of Kyn levels
tumor growth [14]: inhibition of tumor growth

IC50 ([1]; human IDO1 biochemical assay): 600 nM
IC50 [2]: 2830 nM
Compound: O=C1CN(C(=O)c2cc(F)ccc2F)C(c2cccc(Br)c2)N1O (centres unmarked) [Compound 3h]

IC50 ([1]; human IDO1 biochemical assay): 479 nM
IC50 [2]: 1150 nM
Compound: O=C1CN(C(=O)c2ccccc2F)C(c2cccc(Br)c2)N1O (centres unmarked) [Compound 3c]

IC50 ([1]; human IDO1 biochemical assay): > 31600 nM
IC50 [2]: > 31600 nM
Compound: O=C1CN(C(=O)c2ccccc2)C(c2ccccc2)N1O (centres unmarked) [Compound 2a]
